In patent publication US12599583B2, “Small molecule GRB2 stabilizers for Ras map kinase inhibition” (Board of Regents, The University of Texas System, priority 2019, dated 2026):

Target: T1, GRB2 (Homo sapiens, UniProt P62993)
Assay: ITC binding to GRB2
Conditions: read-out: Kd, ITC binding isotherm
Text: Validation of in vitro binding of GRB001 to GRB2 with ITC as an alternative technique. […] GRB001 is able to bind GRB2 in two different conformations as reflected by the energy signature (inset).
FIGS. 14A-14C show ITC binding isotherm of GRB001 binding to GRB2 as in FIG. 4 (FIG. 14A).

Kd [µM] | Compound
0.527 ± 0.367 | O=C1Cc2cc(NC(=O)Nc3cc(Cl)cc(Cl)c3)ccc2N1 [GRB092]

Same assay, conditions: read-out: Kd, binding to GRB2 by ITC

Compound | Kd [µM]
O=C1Cc2cc(NC(=O)Nc3ccc(F)cc3)ccc2N1 [GRB001] | 37

Tested on: OVCAR5
Assay: EGF induced ERK activation in OVCAR5 cells
Format: cell-based
Conditions: not given

Compound | inhibition of EGF induced ERK activation
O=C1Cc2cc(NC(=O)Nc3ccc(F)cc3)ccc2N1 [GRB001] | inhibition of EGF induced ERK activation

Tested on: MDA-MB-231 TNBC
Assay: apoptosis in MDA-MB-231 tumor cells
Format: cell-based
Conditions: not given
Text: GRB001 specifically kills triple negative breast cancer cells through caspase 3/7 mediated apoptosis (FIG. 8B).

Compound | induction of apoptosis
O=C1Cc2cc(NC(=O)Nc3ccc(F)cc3)ccc2N1 [GRB001] | induces apoptosis

Tested on: A549 lung cancer cells
Assay: apoptosis in A549 tumor cells
Format: cell-based
Conditions: not given

Compound | induction of apoptosis
O=C1Cc2cc(NC(=O)Nc3ccc(F)cc3)ccc2N1 [GRB001] | induces apoptosis

Tested on: not listed separately
Assay: Sulforhodamine B (SRB) cytotoxicity in MDA-MB-231 cells
Format: cell-based
Conditions: human
Protocol: (§1) Titrating concentrations of each compounds were used to treat cells for 72 hours. The data was normalized against 100% survival at the lowest inhibitor concentration. Graphs for IC50 were fitted to the four-parameter logistic equation using Prism8. Error bars show the percent coefficient of variation. Equivalent concentrations of DMSO were used as a negative control.
(§2) SRB cytotoxicity analysis was also performed using GRB152 in HEK293T and MDA-MB-231 cells. Cells were exposed to various concentrations of compound for 72 h before viability measurements.

Compound | IC50 at 72 h [µM]
O=c1[nH]c2ccc(NC(=S)Nc3ccc(Cl)c(Cl)c3)cc2o1 [GRB152] | 12.1 ± 1.5

Tested on: not listed separately
Assay: Sulforhodamine B (SRB) cytotoxicity in HEK293T cells
Format: cell-based
Conditions: human
Protocol: as §1, §2

Compound | IC50 at 72 h [µM]
O=c1[nH]c2ccc(NC(=S)Nc3ccc(Cl)c(Cl)c3)cc2o1 [GRB152] | 1.5 ± 0.5
COc1ccc(Cl)cc1NC(=O)Nc1ccc2[nH]c(=O)oc2c1 [GRB161] | > 120

Tested on: MDA-MB-231 triple negative breast cancer cells with G13D k-Ras mutation
Assay: EGF induced MAPK activation in MDA-MB-231 cells
Format: cell-based
Conditions: not given

Compound | inhibition of EGF induced MAPK activation
O=C1Cc2cc(NC(=O)Nc3ccc(F)cc3)ccc2N1 [GRB001] | inhibits RTK induced Ras signaling

Target: T1, GRB2
Assay: fluorescence anisotropy assay measuring GRB2 dimerization
Format: biochemical
Conditions: 100 nM Atto488 labeled GRB2; NB = No Binding (inability to induce GRB2 dimerization); read-out: EC50 anisotropy, compound induced GRB2 dimerization
Protocol: FIGS. 16A & 16B show fluorescence anisotropy assay data measuring GRB2 dimerization. 100 nM Atto488 labeled GRB2, which is below its dimer forming concentration, was used to identify compounds that induce dimerization. […] Note that NB represent compounds inability to induce GRB2 dimerization.
GRB2 dimerization was measured by fluorescence anisotropy assay. 100 nM Atto488 labeled GRB2, which is below its dimer forming concentration, was used to identify compounds that induce dimerization. […] Note that NB represent compounds inability to induce GRB2 dimerization.

Compound | EC50 [µM]
O=C1Cc2cc(NC(=O)Nc3ccc(F)cc3)ccc2N1 [GRB001] | 49.7
O=C1Cc2cc(NC(=O)Nc3cccs3)ccc2N1 [GRB003] | 9.7
O=C1Cc2cc(NC(=O)Nc3cccc(Cl)c3)ccc2N1 [GRB004] | 26
CN1C(=O)Cc2cc(NC(=O)Nc3ccc(F)cc3)ccc21 [GRB006] | 2.7
COc1cccc(NC(=O)Nc2ccc3c(c2)CC(=O)N3C)c1 [GRB007] | 15.7
CCN1C(=O)Cc2cc(NC(=O)Nc3ccc(Cl)c(Cl)c3)ccc21 [GRB009] | 5.5
CCN1C(=O)Cc2cc(NC(=O)Nc3ccc(Cl)cc3)ccc21 [GRB010] | 3.9
COc1ccccc1NC(=O)Nc1ccc2c(c1)CC(=O)N2 [GRB012] | 4.5
Cc1cc(Br)ccc1NC(=O)Nc1ccc2[nH]c(=O)[nH]c2c1 [GRB020] | 0.75
Cc1ccc(NC(=O)Nc2ccc3[nH]c(=O)[nH]c3c2)cc1 [GRB021] | 1
O=C(Nc1cc(F)cc(F)c1)Nc1ccc2[nH]c(=O)[nH]c2c1 [GRB024] | 4.6
O=C(Nc1cc(Cl)cc(Cl)c1)Nc1ccc2[nH]c(=O)[nH]c2c1 [GRB028] | 10.2
Cc1cccc(NC(=O)Nc2ccc3[nH]c(=O)[nH]c3c2)c1C [GRB030] | 37.3
O=C(Nc1ccc(F)c(Cl)c1)Nc1ccc2[nH]c(=O)[nH]c2c1 [GRB031] | 40.3
COc1cccc(NC(=O)Nc2ccc3[nH]c(=O)[nH]c3c2)c1 [GRB034] | 264
O=C(Nc1cccc(C(F)(F)F)c1)Nc1ccc2[nH]c(=O)[nH]c2c1 [GRB046] | 2
O=c1[nH]c2ccc(NC(=S)Nc3ccc(Cl)c(Cl)c3)cc2[nH]1 [GRB048] | 8.3

Compound | EC50 [µM]
O=C(Nc1cc(F)cc(F)c1)Nc1ccc2[nH]c(S)nc2c1 [GRB060] | 2.4
Cc1cc(C)cc(NC(=O)Nc2ccc3[nH]c(S)nc3c2)c1 [GRB062] | 78
O=C(Nc1ccccc1)Nc1ccc2[nH]c(SCc3ccc(F)cc3)nc2c1 [GRB065] | 350
O=C(NCc1ccc(F)cc1)Nc1ccc2[nH]c(SCc3ccc(F)cc3)nc2c1 [GRB066] | 246
Cc1cc(C)cc(NC(=O)Nc2ccc3[nH]c(SCc4ccc(F)cc4)nc3c2)c1 [GRB067] | 48
O=C(Nc1ccc2ccccc2c1)Nc1ccc2[nH]c(SCc3ccc(F)cc3)nc2c1 [GRB070] | 128
O=C(Nc1cc(F)cc(F)c1)Nc1ccc2[nH]c(SCc3ccc(F)cc3)nc2c1 [GRB071] | 225
CC(=O)c1cccc(NC(=O)Nc2ccc3[nH]c(SCc4ccc(F)cc4)nc3c2)c1 [GRB073] | 15
O=C(Cc1ccc(F)cc1)Nc1ccc2[nH]c(S)nc2c1 [GRB074] | 205
O=C(Nc1cccc(F)c1)Nc1ccc2[nH]c(SCc3ccc(F)cc3)nc2c1 [GRB075] | 23
Cc1cc(NC(=O)Nc2ccc3c(c2)CC(=O)N3)ccc1Cl [GRB090] | 13
O=C1Cc2cc(NC(=O)NC(=O)c3ccccc3)ccc2N1 [GRB091] | 13.3
O=C1Cc2cc(NC(=O)Nc3cc(Cl)cc(Cl)c3)ccc2N1 [GRB092] | 13.8
COC(=O)c1cccc(NC(=O)Nc2ccc3c(c2)CC(=O)N3)c1 [GRB094] | 23
O=C(Nc1cc(F)cc(F)c1)Nc1ccc2[nH]c(=O)oc2c1 [GRB102] | > 100
COc1cccc(NC(=O)Nc2ccc3[nH]c(=O)oc3c2)c1 [GRB105] | 9.7

Continued, values first:

EC50 [µM] | Compound
2.1 | O=C(Nc1ccc(Cl)c(Cl)c1)Nc1ccc2[nH]c(=O)[nH]c2c1 [GRB022]
3.1 | O=C(Nc1cccc(F)c1)Nc1ccc2[nH]c(=O)[nH]c2c1 [GRB023]
6 | N#Cc1cccc(NC(=O)Nc2ccc3[nH]c(=O)[nH]c3c2)c1 [GRB025]
8.2 | Cc1ccc(NC(=O)Nc2ccc3[nH]c(=O)[nH]c3c2)c(C)c1 [GRB026]
10.1 | CCOC(=O)CNC(=O)Nc1ccc2[nH]c(=O)[nH]c2c1 [GRB027]
16.3 | Cc1ccc(NC(=O)Nc2ccc3[nH]c(=O)[nH]c3c2)c(C)c1 [GRB029]
> 100 | COc1cc(NC(=O)Nc2ccc3[nH]c(=O)[nH]c3c2)cc(OC)c1OC [GRB032]
> 100 | COC(=O)c1cccc(NC(=O)Nc2ccc3[nH]c(=O)[nH]c3c2)c1 [GRB033]
9.7 | O=C(Nc1ccc(F)cc1)Nc1ccc2[nH]c(=O)[nH]c2c1 [GRB047]
11.5 | O=C(NCc1ccccc1)Nc1ccc2[nH]c(=O)[nH]c2c1 [GRB049]
56 | O=c1[nH]c2ccc(NC(=S)NCCN3CCOCC3)cc2[nH]1 [GRB050]
> 100 | COc1ccccc1NC(=O)Nc1ccc2[nH]c(=O)[nH]c2c1 [GRB051]
2 | Cc1ccccc1NC(=O)Nc1ccc2[nH]c(S)nc2c1 [GRB058]
129 | COc1cccc(NC(=O)Nc2ccc3[nH]c(S)nc3c2)c1 [GRB061]
124 | N#Cc1ccc(NC(=O)Nc2ccc3[nH]c(S)nc3c2)cc1 [GRB063]
116 | O=C(Nc1ccccc1)Nc1ccc2[nH]c(S)nc2c1 [GRB064]
62 | COC(=O)c1cccc(NC(=O)c2ccc3[nH]c(S)nc3c2)c1 [GRB076]
502 | CSc1nc2cc(C(=O)Nc3cccc(F)c3)ccc2[nH]1 [GRB077]
436 | Cc1ccc(S(=O)(=O)Nc2ccc3[nH]c(S)nc3c2)cc1 [GRB078]
1.1 | O=C1Cc2cc(NC(=O)Nc3cc(F)cc(F)c3)ccc2N1 [GRB085]
1.5 | O=C1Cc2cc(NC(=S)Nc3ccc(Cl)c(Cl)c3)ccc2N1 [GRB086]
4.6 | O=C1Cc2cc(NC(=O)Nc3cccc(Br)c3)ccc2N1 [GRB087]
8.3 | O=C1Cc2cc(NC(=O)Nc3ccc(F)c(Cl)c3)ccc2N1 [GRB088]
9.1 | Cc1cccc(NC(=O)Nc2ccc3c(c2)CC(=O)N3)c1C [GRB089]
15.5 | Cc1ccc(NC(=O)Nc2ccc3c(c2)CC(=O)N3)c(C)c1 [GRB093]
50.9 | O=C1Cc2cc(NC(=S)Nc3cccc(Cl)c3)ccc2N1 [GRB095]
13 | O=C(Nc1cc(Cl)cc(Cl)c1)Nc1ccc2[nH]c(=O)oc2c1 [GRB101]
3.1 | Cc1ccc(NC(=O)Nc2ccc3[nH]c(=O)oc3c2)cc1 [GRB104]

Target: GRB2 dimer interface (Homo sapiens, UniProt P62993)
Assay: GRB2 monomer dimer equilibrium measurement
Format: biochemical
Conditions: presence of 100 μM GRB001
Protocol: Measurements of GRB2 monomer dimer equilibrium in the absence (lower, darker line) or presence of 100 μM GRB001 (upper, lighter line).

Compound | effect on GRB2 monomer dimer equilibrium
O=C1Cc2cc(NC(=O)Nc3ccc(F)cc3)ccc2N1 [GRB001] | induce a Kd shift favoring dimerization

Tested on: RTK induced Ras signaling
Assay: EGF and FGF induced MAPK activation in multiple cancer cell-lines
Format: cell-based
Conditions: not given
Text: GRB001 inhibits RAS/ERK activation while EGFR is fully active (FIG. 6D, top panel and the corresponding active EGFR in bottom panel)

Compound | inhibition of EGF and FGF induced MAPK activation
O=C1Cc2cc(NC(=O)Nc3ccc(F)cc3)ccc2N1 [GRB001] | inhibits EGF and FGF induced MAPK activation

Tested on: A549 (lung adenocarcinoma) cells with G12S KRAS mutation
Assay: EGF induced MAPK activation in A549 cells
Format: cell-based
Conditions: not given

Compound | inhibition of EGF induced MAPK activation
O=C1Cc2cc(NC(=O)Nc3ccc(F)cc3)ccc2N1 [GRB001] | inhibits RTK induced Ras signaling

Target: T1, GRB2
Assay: GRB001 binding to GRB2 by MST
Conditions: read-out: Kd, in vitro binding to GRB2 by MST
Protocol: In vitro binding of GRB001 to GRB2 with 50 μM Kd.

Compound | Kd [µM]
O=C1Cc2cc(NC(=O)Nc3ccc(F)cc3)ccc2N1 [GRB001] | 50

Tested on: OVCAR8 cells
Assay: EGF induced ERK activation in OVCAR8 cells
Format: cell-based
Conditions: not given

Compound | inhibition of EGF induced ERK activation
O=C1Cc2cc(NC(=O)Nc3ccc(F)cc3)ccc2N1 [GRB001] | inhibition of EGF induced ERK activation

Tested on: OVCAR5 cells
Assay: nuclear fragmentation of OVCAR5 cells, high-throughput assay
Format: cell-based
Conditions: 500 nM compound
Text: The intensity of the red color represents nuclear condensation indicative of apoptotic cells.

Compound | nuclear fragmentation of OVCAR5 cells
O=C1Cc2cc(NC(=O)Nc3ccc(Cl)c(Cl)c3)ccc2N1 [GRB002] | inducing nuclear fragmentation

Same assay, conditions: OVCAR5 cells

Compound | quantitation of fragmented nucleus among Series-1 GRB001 analogues
O=C1Cc2cc(NC(=O)Nc3ccc(Cl)c(Cl)c3)ccc2N1 [GRB002] | highest level of fragmented nucleus
O=C1Cc2cc(NC(=O)Nc3ccc4c(c3)OCO4)ccc2N1 [GRB005] | highest level of fragmented nucleus
